Inhibition and zone of inhibition data for 16 molecules are collected here from ChEMBL document CHEMBL3044545, “Synthesis and evaluation of antioxidant and antimicrobial properties of thymol containing pyridone moieties” (2012).

What all share (format): functional
Assay [1] can be described thus: Antioxidant activity assessed as inhibition of NBT reduction at 80 ug/ml.
For assay [2], the system named is Talaromyces marneffei. Briefly: Antimicrobial activity against Talaromyces marneffei at 100 ppm after 48 hr by agar well diffusion method. The settings on record: read-out: IZ. In general terms: In agar diffusion tests the substance spreads into inoculated agar from a disc or well.
Assay [3] is described as follows: Antioxidant activity assessed as inhibition of NBT reduction at 60 ug/ml.
The nature of assay [4]: Antioxidant activity assessed as inhibition of NBT reduction at 40 ug/ml.
Assay [5] is described as follows: Antioxidant activity assessed as inhibition of NBT reduction at 20 ug/ml.
The nature of assay [6]: Antioxidant activity assessed as inhibition of NBT reduction at 100 ug/ml.
Assay [7] deals with Staphylococcus aureus. Briefly: Antimicrobial activity against Staphylococcus aureus at 100 ppm after 48 hr by agar well diffusion method. To be noted: read-out: IZ.
Assay [8] concerns Aspergillus niger. Kind of assay: Antimicrobial activity against Aspergillus niger at 100 ppm after 48 hr by agar well diffusion method. To be noted: read-out: IZ.
Assay [9] concerns Escherichia coli. Kind of assay: Antimicrobial activity against Escherichia coli at 100 ppm after 48 hr by agar well diffusion method. To be noted: read-out: IZ.
Assay [10] relates to Staphylococcus aureus. Kind of assay: Antimicrobial activity against Staphylococcus aureus at 100 ug/ml after 48 hr by agar well diffusion method. The settings on record: read-out: IZ.
Assay [11] concerns Escherichia coli. Briefly: Antimicrobial activity against Escherichia coli at 100 ug/ml after 48 hr by agar well diffusion method. The settings on record: read-out: IZ.
In assay [12] the test system is Aspergillus niger. Kind of assay: Antimicrobial activity against Aspergillus niger at 100 ug/ml after 48 hr by agar well diffusion method. To be noted: read-out: IZ.
Assay [13] deals with Talaromyces marneffei. Briefly: Antimicrobial activity against Talaromyces marneffei at 100 ug/ml after 48 hr by agar well diffusion method. To be noted: read-out: IZ.

For orientation: inhibition means the percentage by which the read-out fell short of the control.

Molecules are shown by their SMILES.

As to `COc1ccc(-c2cc(-c3cc(C(C)C)c(O)cc3C)[nH]c(=O)c2C#N)cc1`, the inhibition was 47.5% in assay [1]; 43% in assay [3]; 35% in assay [4]; 24% in assay [5]; 54% in assay [6]. Besides, the zone of inhibition at 100 ppm in the assay with Talaromyces marneffei [2] was found to be 10 mm; in the assay on Staphylococcus aureus [7], 13 mm; with Aspergillus niger [8], 10 mm; in the assay with Escherichia coli [9] it was 14 mm.

With `COc1cc(-c2cc(-c3cc(C(C)C)c(O)cc3C)[nH]c(=O)c2C#N)cc(OC)c1OC`, the inhibition in assay [1] was 82%; in assay [3] it was 71%; in assay [4], 55%; in assay [5], 35%; in assay [6], 84.5%. Moreover, the zone of inhibition at 100 ppm with Staphylococcus aureus [7] amounted to 10 mm; with Escherichia coli [9], 11 mm.

Turning to `Cc1ccc(C(C)C)c(O)c1` [THYMOL], the inhibition in assay [1] worked out at 27.5%; in [3], 22.5%; in assay [4], 16%; in assay [5], 10%; in assay [6], 31%. Further, the zone of inhibition at 100 ppm in the assay on Talaromyces marneffei [2] was 7 mm; with Staphylococcus aureus [7] it was 9 mm; in the assay on Aspergillus niger [8], 8 mm; with Escherichia coli [9], 8 mm.

Turning to `Cc1cc(O)c(C(C)C)cc1-c1cc(-c2ccccc2[N+](=O)[O-])c(C#N)c(=O)[nH]1`, the inhibition came to 35% in [1]; 31% in assay [3]; 25.5% in [4]; 20% in [5]; 37.5% in assay [6]. In addition, the zone of inhibition at 100 ppm is 11 mm with Talaromyces marneffei [2], 13 mm in the assay on Staphylococcus aureus [7], 12 mm in the assay with Aspergillus niger [8] and 14 mm in the assay on Escherichia coli [9].

Take `Cc1onc(-c2ccccc2Cl)c1C(=O)N[C@@H]1C(=O)N2[C@@H]1SC(C)(C)[C@@H]2C(=O)O` [CLOXACILLIN]: the figures for the zone of inhibition at 100 µg/mL with Staphylococcus aureus [10] and in the assay on Escherichia coli [11] were 18 mm and 17 mm, respectively.

Consider `COc1cc(OC)c(-c2cc(-c3cc(C(C)C)c(O)cc3C)[nH]c(=O)c2C#N)c(OC)c1`, for which the inhibition is 79% in assay [1]; 66% in [3]; 52.6% in [4]; 32% in assay [5]; 82.5% in [6]. Also, the figures for the zone of inhibition at 100 ppm with Staphylococcus aureus [7] and with Escherichia coli [9] were 11 mm and 10 mm, respectively.

Take `Cc1cc(O)c(C(C)C)cc1-c1cc(-c2ccc(N(C)C)cc2)c(C#N)c(=O)[nH]1`: the inhibition was determined as 66.5% in assay [1]; 53% in assay [3]; 43% in assay [4]; 30% in assay [5]; 68% in assay [6]. For the same molecule, the zone of inhibition at 100 ppm was 13 mm with Talaromyces marneffei [2], 14 mm in the assay with Staphylococcus aureus [7], 14 mm with Aspergillus niger [8] and 14 mm in the assay with Escherichia coli [9].

With `Cc1cc(O)c(C(C)C)cc1-c1cc(-c2ccccc2)c(C#N)c(=O)[nH]1`, the inhibition in assay [1] was 58%; in assay [3], 34%; in assay [4] it was 29%; in assay [5] it was 22%; in assay [6] it was 41%. Further, the zone of inhibition at 100 ppm with Talaromyces marneffei [2] worked out at 9 mm; in the assay with Staphylococcus aureus [7] it was 11 mm; in the assay with Aspergillus niger [8], 9 mm; with Escherichia coli [9], 10 mm.

Turning to `COc1cc(-c2cc(-c3cc(C(C)C)c(O)cc3C)[nH]c(=O)c2C#N)ccc1O`, the inhibition in [1] was 42%; in assay [3], 37.5%; in assay [4], 32%; in assay [5], 26%; in assay [6] it was 44%. Besides, the zone of inhibition at 100 ppm is 11 mm with Talaromyces marneffei [2], 15 mm in the assay on Staphylococcus aureus [7], 11 mm in the assay with Aspergillus niger [8] and 14 mm in the assay on Escherichia coli [9].

Turning to `OC(Cn1cncn1)(Cn1cncn1)c1ccc(F)cc1F` [FLUCONAZOLE], the zone of inhibition at 100 µg/mL in the assay with Aspergillus niger [12] was determined as 16 mm; with Talaromyces marneffei [13], 17 mm.

Take `COc1cccc(-c2cc(-c3cc(C(C)C)c(O)cc3C)[nH]c(=O)c2C#N)c1`: the inhibition was found to be 43% in assay [1]; 38% in assay [3]; 30% in assay [4]; 22% in assay [5]; 49% in assay [6]. Besides, the zone of inhibition at 100 ppm turned out to be 11 mm in the assay with Talaromyces marneffei [2], 13 mm with Staphylococcus aureus [7], 11 mm with Aspergillus niger [8] and 14 mm with Escherichia coli [9].

For `Cc1cc(O)c(C(C)C)cc1-c1cc(-c2ccccc2Cl)c(C#N)c(=O)[nH]1`, the inhibition is 32% in assay [1]; 26% in assay [3]; 20% in assay [4]; 12% in assay [5]; 34% in assay [6]. Moreover, the zone of inhibition at 100 ppm worked out at 12 mm in the assay on Talaromyces marneffei [2], 14 mm with Staphylococcus aureus [7], 11 mm with Aspergillus niger [8] and 15 mm in the assay with Escherichia coli [9].

For `Cc1cc(O)c(C(C)C)cc1-c1cc(-c2ccco2)c(C#N)c(=O)[nH]1`, the inhibition in assay [1] is 64%; in assay [3] it was 55.2%; in assay [4], 42.5%; in [5], 26%; in assay [6] it was 70%. The zone of inhibition at 100 ppm in the assay on Talaromyces marneffei [2] came to 9 mm; with Staphylococcus aureus [7], 13 mm; in the assay on Aspergillus niger [8], 10 mm; in the assay on Escherichia coli [9], 12 mm.

Turning to `Cc1cc(O)c(C(C)C)cc1-c1cc(-c2cccs2)c(C#N)c(=O)[nH]1`, the inhibition in assay [1] turned out to be 63%; in [3], 54.3%; in [4], 41%; in assay [5], 26%; in assay [6], 68%. The zone of inhibition at 100 ppm in the assay with Talaromyces marneffei [2] is 11 mm; in the assay with Staphylococcus aureus [7] it was 14 mm; in the assay with Aspergillus niger [8], 10 mm; in the assay with Escherichia coli [9], 13 mm.

In the case of `COc1ccc(-c2cc(-c3cc(C(C)C)c(O)cc3C)[nH]c(=O)c2C#N)cc1OC`, the inhibition in assay [1] is 58%; in assay [3] it was 52%; in assay [4] it was 44%; in assay [5], 25%; in [6], 61%. The zone of inhibition at 100 ppm with Talaromyces marneffei [2] came out at 10 mm; in the assay with Staphylococcus aureus [7], 13 mm; with Aspergillus niger [8] it was 9 mm; in the assay with Escherichia coli [9], 13 mm.

For `COc1ccc(-c2cc(-c3cc(C(C)C)c(O)cc3C)[nH]c(=O)c2C#N)c(OC)c1`, the inhibition stood at 55% in assay [1]; 48.5% in assay [3]; 37.5% in assay [4]; 27% in assay [5]; 58% in assay [6]. In addition, the zone of inhibition at 100 ppm in the assay on Talaromyces marneffei [2] amounted to 10 mm; in the assay on Staphylococcus aureus [7], 14 mm; in the assay with Aspergillus niger [8] it was 10 mm; with Escherichia coli [9], 13 mm.
